The values that follow come from patent US20150315218A1, “SALTS OF PRODRUGS OF PIPERAZINE AND SUBSTITUTED PIPERIDINE ANTIVIRAL AGENTS” (Bristol-Myers Squibb Company, priority 2004, published 2015).

As usually defined, the Tmax is the time at which the peak concentration occurs. Broadly, the Cmax is the maximum level reached in the sampled fluid or tissue. Broadly, the MRT is a mean duration of stay, worked out from the concentration-time curve.

Data set [1] can be described thus: IV and PO pharmacokinetic studies of prodrug salts (Iab, Ibb, Icb) in the dog, with historical parent data. In kind it is in vivo, beagle dogs. As to conditions: for Tmax: read-out: Tmax (hr), PO; for concentration at 24 hr: read-out: C-24 hr (μM), PO; for Cmax: read-out: Cmax (μM), PO. Here is the method:
The IV and PO studies of Iab were conducted in a crossover fashion in three male beagle dogs (11±1.1 kg, Marshall Farms USA Inc., North Rose, N.Y.). There was a two-week washout period between the IV and PO studies.
In the IV study, Iab was infused via the cephalic vein at 1.2 mg/kg (free acid, or 0.95 mg/kg of IVa equivalent) over 5 min at a constant rate of 0.1 mL/kg/min. The concentration of the dosing solution was 2.4 mg/mL, and the dosing volume was 0.5 mL/kg. Serial blood samples were collected from the femoral artery before dosing and at 5, 10, 15, 30, 45 min, 1, 2, 4, 6, 8 and 24 hr after dosing.
In the PO study, the dogs were fasted overnight before dosing. Iab was administered by oral gavage at 6.6 mg/kg (free acid, or 5.2 mg/kg of IVa equivalent). The concentration of the dosing solution was 13.2 mg/mL, and the dosing volume was 0.5 mL/kg. Serial blood samples were collected before dosing and at 15, 30, 45 min, 1, 2, 4, 6, 8 and 24 hr after dosing.
The IV and PO studies of Ibb were conducted in male beagle dogs (10±0.78 kg, Marshall Farms USA Inc., North Rose, N.Y.). Three dogs were used in each study. Of the three dogs, two same dogs were used for both IV and PO studies. There was a two-week washout period between the IV and PO studies.
The concentration of the dosing solution was 2.6 mg/mL, and the dosing volume was 0.5 mL/kg. Serial blood samples were collected from the femoral artery before dosing and at 5, 10, 15, 30, 45 min, 1, 2, 4, 6, 8 and 24 hr after dosing.
In the PO study, the dogs were fasted overnight before dosing. […] The concentration of the dosing solution was 7.0 mg/mL, and the dosing volume was 1 mL/kg. Serial blood samples were collected before dosing and at 15, 30, 45 min, 1, 2, 4, 6, 8 and 24 hr after dosing.
The IV and PO studies of Icb were conducted in a crossover fashion in three male beagle dogs (12±2.8 kg, Marshall Farms USA Inc., North Rose, N.Y.). There was a two-week washout period between the IV and PO studies.
In the IV study, Icb was infused via the cephalic vein at 1.3 mg/kg (free acid, or 1.0 mg/kg of IVe equivalent) over 5 min at a constant rate of 0.1 mL/kg/min. The concentration of the dosing solution was 2.6 mg/mL, and the dosing volume was 0.5 mL/kg. Serial blood samples were collected from the femoral artery before dosing and at 5, 10, 15, 30, 45 min, 1, 2, 4, 6, 8 and 24 hr after dosing.
In the PO study, the dogs were fasted overnight before dosing. […] The concentration of the dosing solution was 12 mg/mL, and the dosing volume was 0.5 mL/kg. Serial blood samples were collected before dosing and at 15, 30, 45 min, 1, 2, 4, 6, 8 and 24 hr after dosing.

Data set [2] in a line: IV and PO pharmacokinetic studies of prodrug salts (Iab, Ibb, Icb) in the rat, with historical parent data. In kind it is in vivo, Sprague-Dawley rats. The conditions noted are these: for Vd: read-out: Vdss (L/kg), IV; for Tmax: read-out: Tmax (hr), PO; for Cmax: read-out: Cmax (μM), PO. The protocol: All blood samples (0.3 mL) were colleted in microtainers containing K2EDTA (Becton Dickinson, Franklin Lakes, N.J.) and placed on chipped ice. After centrifugation, plasma was separated and stored at −20° C. until analysis. The mono-lysine salt of Iab (Form 3, Lot 1) was used for the pharmacokinetic studies. The dosing solutions of Iab were prepared in either sterile water (for IV administration in dogs and monkeys) or distilled water (for all other dose administration).
Male Sprague-Dawley rats (300-350 g, Hilltop Lab Animals, Inc., Scottsdale, Pa.) with cannulas implanted in the jugular vein were used. The rats were fasted overnight in the PO pharmacokinetic studies. Blood samples were collected from the jugular vein.
In the IV study, Iab was delivered at 1.4 mg/kg (free acid, or 1.1 mg/kg of IVa equivalent) as a bolus over 0.5 min (n=3).
In the PO study, Iab was administered at 7.9 mg/kg (free acid, or 6.3 mg/kg of IVa equivalent) by oral gavage (n=3). The concentration of the dosing solution was 4.0 mg/mL, and the dosing volume was 2 mL/kg.
The pharmacokinetic parameters of Iab and IVa were calculated by Non-Compartmental Analysis using the […]™ software program (version 4.0.2, InnaPhase Co., Philadelphia, Pa.). The Cmax and Tmax values were recorded directly from experimental observations. The AUC0-n and AUCtot values were calculated using the mixed log-linear trapezoidal summations. The total body clearance (Cl), mean residence time (MRT), and the steady state volume of distribution (Vss) were also calculated after intravenous administration. The absolute oral bioavailability (expressed as %) was estimated by taking the ratio of dose-normalized AUC values after oral doses to those after intravenous doses.
All blood samples (0.3 mL) were colleted in microtainers containing K2EDTA (Becton Dickinson, Franklin Lakes, N.J.) and placed on chipped ice. After centrifugation, plasma was separated and stored at −20° C. until analysis. The mono-lysine salt of Ibb (Form 3) was used for the pharmacokinetic studies. The dosing solutions of Ibb were prepared in either sterile water (for IV administration in dogs and monkeys) or distilled water (for all other dose administration).
(§1) The Cmax and Tmax values were recorded directly from experimental observations. The AUC0-n and AUCtot values were calculated using the mixed log-linear trapezoidal summations. The total body clearance (Cl), mean residence time (MRT), and the steady state volume of distribution (Vss) were also calculated after intravenous administration. The absolute oral bioavailability (expressed as %) was estimated by taking the ratio of dose-normalized AUC values after oral doses to those after intravenous doses.
In the IV study, Icb was delivered at 1.4 mg/kg (free acid, or 1.1 mg/kg of IVe equivalent) as a bolus over 0.5 min (n=3).
In the PO study, Icb was administered at 6.9 mg/kg (free acid, or 5.6 mg/kg of IVe equivalent) by oral gavage (n=3).
as §1

[3] abbreviates: male, beagle, plasma, 6.6 mg/kg, after oral prodrug, analyte = label, ND = not detected.
The mark [4] stands for this setting: male, beagle, plasma, after IV prodrug (~1 mg/kg parent equivalent), analyte = label, read-out: AUCtot (μM · hr), IV.
[5] abbreviates: male, beagle, plasma, after IV prodrug, analyte = label, read-out: t1/2 (hr), IV (converted).
Where [6] appears, read: oral prodrug vs historical parent.
Setting [7] is: plasma, historical parent, PO 5 mg/kg.
The mark [8] stands for this setting: male, Sprague-Dawley, plasma, after IV prodrug (~1 mg/kg parent equivalent), analyte = label, read-out: AUCtot (μM·hr), IV.
[9] abbreviates: male, Sprague-Dawley, plasma, after IV prodrug, analyte = label, read-out: t1/2 (hr), IV (converted).
Where [10] appears, read: male, beagle, in vivo, iv, 1.28 mg/kg.

Structures can show the parent of a compound that is named as a salt. Where two headings read alike, the source gives them in different places. Marks after values point to notes of the source that are not given here.

As for `COc1ncc(OC)c2c(C(=O)C(=O)N3CCN(C(=O)c4ccccc4)CC3)c[nH]c12` [IVa, N-(benzoyl)-N′-[(4,7-dimethoxy-6-azaindol-3-yl)-oxoacetyl]piperazine], the “IV AUC Ratio of parent (formed from prodrug vs historical parent study)” value in data set [1] amounted to 0.80. For the same compound, the “Bioavailability (%)” value in data set [1] (beagle, in vivo, po, 5 mg/kg) turned out to be 57%; in data set [2] (historical parent, PO 5 mg/kg), 90%. Besides, the Tmax in data set [1] (beagle, plasma, historical parent, PO 5 mg/kg) is 2.9 h; in data set [1] (male, beagle, plasma, parent after oral prodrug (~5 mg/kg parent equivalent)), 0.25 h; in data set [2] (Sprague-Dawley, plasma, historical parent, PO 5 mg/kg), 2 h; in data set [2] (male, Sprague-Dawley, plasma, parent after oral prodrug (~5-6 mg/kg parent equivalent)), 0.83 h. Further, the AUC was determined as 83 ± 16 µM·h in data set [1] (male, beagle, plasma, 6.6 mg/kg, after oral prodrug, analyte = label, ND = not detected, read-out: AUCtot (μM · hr), PO); 13 ± 2.2 µM·h in data set [1] (setting [4]); 17 ± 3.5 µM·h in data set [1] (plasma, historical parent, IV 1 mg/kg, read-out: AUCtot (μM · hr), IV); 47 ± 7.2 µM·h in data set [1] (plasma, historical parent, PO 5 mg/kg, read-out: AUCtot (μM · hr), PO); 3.3 ± 1.1 µM·h in data set [2] (Sprague-Dawley, plasma, historical parent, IV 1 mg/kg, read-out: AUCtot (μM·hr), IV); 13 ± 1.4 µM·h in data set [2] (male, Sprague-Dawley, plasma, 7.9 mg/kg, after oral prodrug, analyte = label, ND = not detected (<5 nM), read-out: AUCtot (μM·hr), PO). Also, the AUC in data set [2] (setting [8]) turned out to be 5.4 ± 0.93 µM·h. Further, the values for the concentration at 24 hr in data set [1] (setting [3]) and in data set [1] (setting [7]) were 0.26 ± 0.12 µM and 0.15 ± 0.093 µM, respectively. Further, the Cmax in data set [1] (setting [3]) stood at 14 ± 1.3 µM; in data set [1] (setting [7]), 6.5 ± 1.2 µM; in data set [2] (historical parent, PO 5 mg/kg), 4.5 ± 1.5 µM; in data set [2] (male, Sprague-Dawley, plasma, 7.9 mg/kg, after oral prodrug, analyte = label, ND = not detected (<5 nM)), 3.9 ± 0.98 µM. The half-life in data set [1] (male, beagle, plasma, 6.6 mg/kg, parent after oral prodrug, read-out: t1/2 (hr), PO (converted)) is 4.1 ± 0.52 h; in data set [1] (setting [5]), 5.2 ± 1 h; in data set [1] (plasma, historical parent, IV 1 mg/kg, read-out: t1/2 (hr), IV (converted)), 2.6 ± 1.2 h; in data set [1] (plasma, historical parent, PO 5 mg/kg, read-out: t1/2 (hr), PO (converted)), 3.8 ± 0.81 h; in data set [2] (Sprague-Dawley, plasma, historical parent, IV 1 mg/kg, read-out: t1/2 (hr), IV (converted)), 2.4 ± 0.32 h; in data set [2] (Sprague-Dawley, plasma, historical parent, PO 5 mg/kg, read-out: t1/2 (hr), PO (converted)) it was 1.7 ± 0.92 h. Moreover, the half-life in data set [2] (male, Sprague-Dawley, plasma, 7.9 mg/kg, parent after oral prodrug, read-out: t1/2 (hr), PO (converted)) was 1.5 ± 0.24 h; in data set [2] (setting [9]) it was 4.4 ± 1.9 h. For the same compound, the bioavailability in data set [1] (male, beagle, plasma, oral prodrug, read-out: Bioavailability (%) of parent from prodrug) was 94%; in data set [2] (male, Sprague-Dawley, plasma, oral prodrug, calculated from historical IV data of parent, read-out: Bioavailability (%) of parent from prodrug) it was 62%; in data set [2] (plasma, po, range over rats, dogs and monkeys, read-out: oral bioavailabilities of parent after administration of prodrug), 62 to 94%. The “PO AUC Ratio of parent” value was 1.7 in data set [1] (setting [6]) and 0.69* in data set [2] (setting [6]). For the same compound, the clearance in data set [1] (plasma, historical parent, IV 1 mg/kg, read-out: CLtot (mL/min/kg), IV) came out at 2.4 ± 0.43 mL/min/kg. For the same compound, the MRT in data set [1] (plasma, historical parent, IV 1 mg/kg, read-out: MRT (hr), IV) worked out at 3.3 ± 0.71 h; in data set [2] (Sprague-Dawley, plasma, historical parent, IV 1 mg/kg, read-out: MRT (hr), IV) it was 2.2 ± 1.5 h. Further, the Vd in data set [1] (plasma, historical parent, IV 1 mg/kg, read-out: Vdss (L/kg), IV) amounted to 0.45 ± 0.083 L/kg; in data set [2] (Sprague-Dawley, plasma, historical parent, IV 1 mg/kg), 1.5 ± 0.25 L/kg. In addition, the “CLtot (mL/min/kg), IV” value in data set [2] (historical parent, IV 1 mg/kg) was determined as 13 ± 4.0 mL/min/kg. Moreover, the “AUCtot (μM·hr), PO” value in data set [2] (historical parent, PO 5 mg/kg) came to 15 ± 6.3 µM·h.
`COc1cnc(-n2cnc(C)n2)c2c1c(C(=O)C(=O)N1CCN(C(=O)c3ccccc3)CC1)cn2COP(=O)(O)O` [Icb, [3-[(4-benzoylpiperazin-1-yl)(oxo)acetyl]-4-methoxy-7-(3-methyl-1H-1,2,4-triazol-1-yl)-1H-pyrrolo[2,3-c]pyridin-1-yl]methyl dihydrogen phosphate, 2-amino-2-(hydroxymethyl)propane-1,3-diol salt (1:1)]: in data set [1] (setting [10]), the AUC was found to be 0.61 ± 0.2 µM·h, the MRT was found to be 0.14 ± 0.021 h, the Vd came out at 0.5 ± 0.088 L/kg and the clearance was 64 ± 18 mL/min/kg. Also, in data set [1] (setting [10]), the half-life was 0.25 ± 0.1 h. Moreover, the T1/2 in data set [2] (male, Sprague-Dawley, in vivo, iv, […]) was 5.04 ± 0.72 min.
As to `COc1cnc(OC)c2c1c(C(=O)C(=O)N1CCN(C(=O)c3ccccc3)CC1)cn2COP(=O)(O)O` [Iab, {3-[(4-benzoylpiperazin-1-yl)(oxo)acetyl]-4,7-dimethoxy-1H-pyrrolo[2,3-c]pyridin-1-yl}methyl dihydrogen phosphate, L-lysine salt (1:1)], the results for the AUC in data set [1] (setting [4]) and in data set [2] (setting [8]) were 0.56 ± 0.12 µM·h and 3.3 ± 1 µM·h, respectively. For the same compound, the results for the half-life in data set [1] (setting [5]) and in data set [2] (setting [9]) were 0.15 h and 0.16 h, respectively. The clearance stood at 70 mL/min/kg in data set [1] (male, beagle, plasma, prodrug after IV administration, read-out: CLtot (mL/min/kg), IV) and 14 mL/min/kg in data set [2] (male, Sprague-Dawley, plasma, prodrug after IV administration, read-out: CLtot (mL/min/kg), IV). In addition, the Vd in data set [1] (male, beagle, plasma, prodrug after IV administration, read-out: Vdss (L/kg), IV) is 0.3 L/kg; in data set [2] (male, Sprague-Dawley, plasma, prodrug after IV administration) it was 0.12 L/kg.
